Assay results published in patent publication US9084828B2, “Oligomer-protein tyrosine kinase inhibitor conjugates” (Nektar Therapeutics, priority 2009, dated 2015).

How the values were obtained:
Format in all cases: biochemical
[1] = target: T1, TSSK1 (Homo sapiens, UniProt Q9BXA7); test: Activity against various protein tyrosine kinases: TSSK1
T1 sequence (Q9BXA7 1-367): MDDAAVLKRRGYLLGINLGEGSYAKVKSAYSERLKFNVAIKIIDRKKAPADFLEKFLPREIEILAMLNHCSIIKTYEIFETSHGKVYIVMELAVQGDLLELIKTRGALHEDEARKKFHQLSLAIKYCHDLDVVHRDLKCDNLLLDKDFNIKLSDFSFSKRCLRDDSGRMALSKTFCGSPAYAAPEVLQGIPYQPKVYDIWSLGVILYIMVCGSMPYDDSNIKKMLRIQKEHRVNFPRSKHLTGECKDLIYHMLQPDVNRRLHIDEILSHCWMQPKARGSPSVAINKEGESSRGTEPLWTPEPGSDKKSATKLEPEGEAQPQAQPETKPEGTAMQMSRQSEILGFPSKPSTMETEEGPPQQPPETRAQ

[2] = target: MAPKAPK3 (Homo sapiens, UniProt Q16644); test: Activity against various protein tyrosine kinases: MAPKAPK3
[3] = target: p38-beta2 (Homo sapiens, UniProt Q15759); test: Activity against various protein tyrosine kinases: p38-beta2
[4] = target: Erk2 (Homo sapiens, UniProt P28482); test: Activity against various protein tyrosine kinases: Erk2
[5] = target: CaMKII (beta) (Homo sapiens, UniProt Q13554); test: Activity against various protein tyrosine kinases: CaMKII (beta)
[6] = target: HCK (Homo sapiens, UniProt P08631); test: Activity against various protein tyrosine kinases: HCK
[7] = target: FGFR4 (Homo sapiens, UniProt P22455); test: Activity against various protein tyrosine kinases: FGFR4
[8] = target: MSK1 (Homo sapiens, UniProt O75582); test: Activity against various protein tyrosine kinases: MSK1
[9] = target: PKA (Homo sapiens, UniProt P17612); test: Activity against various protein tyrosine kinases: PKA
[10] = target: T2, PRAK (Homo sapiens, UniProt Q8IW41); test: Activity against various protein tyrosine kinases: PRAK
T2 sequence (Q8IW41 1-473): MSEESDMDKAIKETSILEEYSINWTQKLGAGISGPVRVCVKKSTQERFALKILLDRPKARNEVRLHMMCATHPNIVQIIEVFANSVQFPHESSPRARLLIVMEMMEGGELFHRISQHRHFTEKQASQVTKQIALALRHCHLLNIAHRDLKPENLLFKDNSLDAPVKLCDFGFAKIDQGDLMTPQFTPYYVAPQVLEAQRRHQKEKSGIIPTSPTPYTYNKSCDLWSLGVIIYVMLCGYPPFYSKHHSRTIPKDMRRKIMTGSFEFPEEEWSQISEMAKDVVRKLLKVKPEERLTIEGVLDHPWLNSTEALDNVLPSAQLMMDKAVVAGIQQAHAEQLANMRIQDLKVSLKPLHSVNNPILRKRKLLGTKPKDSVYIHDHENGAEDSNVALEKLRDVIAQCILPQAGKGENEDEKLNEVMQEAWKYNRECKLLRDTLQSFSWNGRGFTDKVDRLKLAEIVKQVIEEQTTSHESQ

[11] = target: AKT3 (Homo sapiens, UniProt Q9Y243); test: Activity against various protein tyrosine kinases: AKT3
[12] = target: AurB (Homo sapiens, UniProt Q96GD4); test: Activity against various protein tyrosine kinases: AurB
[13] = target: CaMKII (gamma) (Homo sapiens, UniProt Q13555); test: Activity against various protein tyrosine kinases: CaMKII (gamma)
[14] = target: SRC (Homo sapiens, UniProt P12931); test: Activity against various protein tyrosine kinases: SRC
[15] = target: ABL(Q252H) (Homo sapiens, UniProt P00519, Q252H); test: Activity against various protein tyrosine kinases: ABL(Q252H)
Procedure: Using techniques know those of ordinary skill in the art, compounds were tested for activity against various protein tyrosine kinases.

[16] = target: INSR (Homo sapiens, UniProt P06213); test: Activity against various protein tyrosine kinases: INSR
[17] = target: GSK3b (Homo sapiens, UniProt P49841); test: Activity against various protein tyrosine kinases: GSK3b
[18] = target: MET (Homo sapiens, UniProt P08581); test: Activity against various protein tyrosine kinases: MET
[19] = target: LCK (Homo sapiens, UniProt P06239); test: Activity against various protein tyrosine kinases: LCK
[20] = target: EGFR (Homo sapiens, UniProt P00533); test: Activity against various protein tyrosine kinases: EGFR
[21] = target: FYN (Homo sapiens, UniProt P06241); test: Activity against various protein tyrosine kinases: FYN
[22] = target: FGFR2(N549H) (Homo sapiens, UniProt P21802, N549H); test: Activity against various protein tyrosine kinases: FGFR2(N549H)

Sequence of HCK (P08631 whole entry, species assumed): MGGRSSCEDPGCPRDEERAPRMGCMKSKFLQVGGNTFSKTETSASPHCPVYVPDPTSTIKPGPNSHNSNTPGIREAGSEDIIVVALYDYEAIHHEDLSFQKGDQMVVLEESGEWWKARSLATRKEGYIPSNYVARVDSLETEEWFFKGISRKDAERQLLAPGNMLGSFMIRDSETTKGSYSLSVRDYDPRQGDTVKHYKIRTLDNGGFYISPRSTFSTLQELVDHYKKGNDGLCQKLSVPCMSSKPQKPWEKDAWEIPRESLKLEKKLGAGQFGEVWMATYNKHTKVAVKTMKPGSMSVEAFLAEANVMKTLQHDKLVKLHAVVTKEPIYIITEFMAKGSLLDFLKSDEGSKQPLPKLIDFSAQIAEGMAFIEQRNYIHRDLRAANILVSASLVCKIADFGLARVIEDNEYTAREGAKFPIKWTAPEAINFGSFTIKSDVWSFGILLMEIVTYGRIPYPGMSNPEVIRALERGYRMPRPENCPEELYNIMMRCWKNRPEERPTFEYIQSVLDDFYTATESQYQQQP
Sequence of FYN (P06241 whole entry, species assumed): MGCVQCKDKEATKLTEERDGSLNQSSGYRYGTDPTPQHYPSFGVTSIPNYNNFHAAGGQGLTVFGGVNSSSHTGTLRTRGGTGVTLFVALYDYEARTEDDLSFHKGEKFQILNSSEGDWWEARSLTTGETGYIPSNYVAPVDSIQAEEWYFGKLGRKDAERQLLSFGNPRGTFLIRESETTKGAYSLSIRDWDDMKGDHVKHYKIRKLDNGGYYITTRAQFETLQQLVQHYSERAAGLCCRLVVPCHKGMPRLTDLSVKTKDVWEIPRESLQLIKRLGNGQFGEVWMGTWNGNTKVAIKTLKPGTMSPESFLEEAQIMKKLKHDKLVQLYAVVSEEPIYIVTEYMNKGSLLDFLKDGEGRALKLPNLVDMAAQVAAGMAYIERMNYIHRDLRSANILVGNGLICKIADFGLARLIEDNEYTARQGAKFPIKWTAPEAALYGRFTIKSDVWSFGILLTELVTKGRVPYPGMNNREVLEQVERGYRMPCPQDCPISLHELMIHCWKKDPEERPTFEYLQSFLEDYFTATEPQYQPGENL
Sequence of GSK3b (P49841 whole entry, species assumed): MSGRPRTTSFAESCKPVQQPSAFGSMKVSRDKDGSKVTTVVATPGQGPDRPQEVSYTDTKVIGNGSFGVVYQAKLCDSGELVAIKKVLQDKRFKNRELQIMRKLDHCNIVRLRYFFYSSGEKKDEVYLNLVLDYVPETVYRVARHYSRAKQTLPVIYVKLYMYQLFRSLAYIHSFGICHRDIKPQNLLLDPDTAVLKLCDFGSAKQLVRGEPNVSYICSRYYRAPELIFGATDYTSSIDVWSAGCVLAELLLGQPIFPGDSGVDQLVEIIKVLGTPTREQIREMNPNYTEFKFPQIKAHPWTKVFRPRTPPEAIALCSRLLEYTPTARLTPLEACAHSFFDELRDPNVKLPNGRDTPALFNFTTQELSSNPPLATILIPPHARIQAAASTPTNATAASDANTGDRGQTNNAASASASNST
Sequence of Erk2 (P28482 whole entry, species assumed): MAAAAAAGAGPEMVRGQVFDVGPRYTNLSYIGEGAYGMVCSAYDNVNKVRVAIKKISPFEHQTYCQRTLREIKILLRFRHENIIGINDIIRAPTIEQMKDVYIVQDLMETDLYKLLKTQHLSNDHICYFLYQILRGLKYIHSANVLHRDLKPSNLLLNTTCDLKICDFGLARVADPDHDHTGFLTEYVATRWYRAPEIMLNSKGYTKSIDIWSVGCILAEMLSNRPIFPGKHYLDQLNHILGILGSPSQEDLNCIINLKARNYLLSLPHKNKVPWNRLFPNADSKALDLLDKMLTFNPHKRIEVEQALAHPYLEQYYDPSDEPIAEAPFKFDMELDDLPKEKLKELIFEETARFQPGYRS
Sequence of SRC (P12931 whole entry, species assumed): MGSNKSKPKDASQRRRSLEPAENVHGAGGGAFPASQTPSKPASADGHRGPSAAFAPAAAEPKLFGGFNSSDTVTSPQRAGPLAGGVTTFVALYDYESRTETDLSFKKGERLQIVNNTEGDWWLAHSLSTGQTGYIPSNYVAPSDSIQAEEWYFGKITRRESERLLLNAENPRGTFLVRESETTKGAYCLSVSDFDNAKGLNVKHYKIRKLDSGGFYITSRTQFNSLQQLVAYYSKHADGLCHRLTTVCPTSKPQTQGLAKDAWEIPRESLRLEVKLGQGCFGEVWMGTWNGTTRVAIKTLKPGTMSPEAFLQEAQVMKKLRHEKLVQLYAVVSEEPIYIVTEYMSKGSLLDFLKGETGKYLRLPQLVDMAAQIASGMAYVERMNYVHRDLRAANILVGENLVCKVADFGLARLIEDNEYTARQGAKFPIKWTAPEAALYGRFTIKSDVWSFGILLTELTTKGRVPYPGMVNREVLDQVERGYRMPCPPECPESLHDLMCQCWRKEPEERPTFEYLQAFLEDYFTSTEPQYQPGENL
Sequence of FGFR4 (P22455 22-802, species assumed): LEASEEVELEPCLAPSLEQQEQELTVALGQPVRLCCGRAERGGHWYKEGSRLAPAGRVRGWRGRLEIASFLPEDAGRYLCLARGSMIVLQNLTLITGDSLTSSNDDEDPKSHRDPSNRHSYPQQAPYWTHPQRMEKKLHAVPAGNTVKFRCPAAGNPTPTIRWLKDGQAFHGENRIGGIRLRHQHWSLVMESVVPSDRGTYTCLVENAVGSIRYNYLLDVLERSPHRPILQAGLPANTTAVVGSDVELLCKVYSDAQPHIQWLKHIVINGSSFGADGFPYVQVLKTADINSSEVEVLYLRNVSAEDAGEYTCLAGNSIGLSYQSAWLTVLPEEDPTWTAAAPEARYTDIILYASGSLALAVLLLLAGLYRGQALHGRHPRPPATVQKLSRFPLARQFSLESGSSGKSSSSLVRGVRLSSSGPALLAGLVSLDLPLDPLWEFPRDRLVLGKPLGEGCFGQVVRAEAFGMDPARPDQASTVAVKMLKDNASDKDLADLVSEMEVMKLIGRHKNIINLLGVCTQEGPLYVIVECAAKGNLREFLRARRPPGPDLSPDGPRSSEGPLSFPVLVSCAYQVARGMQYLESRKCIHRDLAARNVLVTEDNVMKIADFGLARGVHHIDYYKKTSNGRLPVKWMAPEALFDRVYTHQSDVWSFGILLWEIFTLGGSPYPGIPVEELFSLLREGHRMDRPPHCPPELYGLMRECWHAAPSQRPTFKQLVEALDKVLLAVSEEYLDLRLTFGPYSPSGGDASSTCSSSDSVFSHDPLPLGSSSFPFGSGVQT
Sequence of p38-beta2 (Q15759 whole entry): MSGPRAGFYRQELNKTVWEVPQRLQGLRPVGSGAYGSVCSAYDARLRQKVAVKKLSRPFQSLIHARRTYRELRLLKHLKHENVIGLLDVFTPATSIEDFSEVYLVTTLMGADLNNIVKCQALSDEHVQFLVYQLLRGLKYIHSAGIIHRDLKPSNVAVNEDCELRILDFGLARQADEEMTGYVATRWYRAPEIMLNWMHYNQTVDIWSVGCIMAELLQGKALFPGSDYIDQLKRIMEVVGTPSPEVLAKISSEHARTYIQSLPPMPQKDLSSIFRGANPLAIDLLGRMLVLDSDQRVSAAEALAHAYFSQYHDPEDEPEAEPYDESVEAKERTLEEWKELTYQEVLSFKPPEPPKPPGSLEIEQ
Sequence of MET (P08581 25-1390): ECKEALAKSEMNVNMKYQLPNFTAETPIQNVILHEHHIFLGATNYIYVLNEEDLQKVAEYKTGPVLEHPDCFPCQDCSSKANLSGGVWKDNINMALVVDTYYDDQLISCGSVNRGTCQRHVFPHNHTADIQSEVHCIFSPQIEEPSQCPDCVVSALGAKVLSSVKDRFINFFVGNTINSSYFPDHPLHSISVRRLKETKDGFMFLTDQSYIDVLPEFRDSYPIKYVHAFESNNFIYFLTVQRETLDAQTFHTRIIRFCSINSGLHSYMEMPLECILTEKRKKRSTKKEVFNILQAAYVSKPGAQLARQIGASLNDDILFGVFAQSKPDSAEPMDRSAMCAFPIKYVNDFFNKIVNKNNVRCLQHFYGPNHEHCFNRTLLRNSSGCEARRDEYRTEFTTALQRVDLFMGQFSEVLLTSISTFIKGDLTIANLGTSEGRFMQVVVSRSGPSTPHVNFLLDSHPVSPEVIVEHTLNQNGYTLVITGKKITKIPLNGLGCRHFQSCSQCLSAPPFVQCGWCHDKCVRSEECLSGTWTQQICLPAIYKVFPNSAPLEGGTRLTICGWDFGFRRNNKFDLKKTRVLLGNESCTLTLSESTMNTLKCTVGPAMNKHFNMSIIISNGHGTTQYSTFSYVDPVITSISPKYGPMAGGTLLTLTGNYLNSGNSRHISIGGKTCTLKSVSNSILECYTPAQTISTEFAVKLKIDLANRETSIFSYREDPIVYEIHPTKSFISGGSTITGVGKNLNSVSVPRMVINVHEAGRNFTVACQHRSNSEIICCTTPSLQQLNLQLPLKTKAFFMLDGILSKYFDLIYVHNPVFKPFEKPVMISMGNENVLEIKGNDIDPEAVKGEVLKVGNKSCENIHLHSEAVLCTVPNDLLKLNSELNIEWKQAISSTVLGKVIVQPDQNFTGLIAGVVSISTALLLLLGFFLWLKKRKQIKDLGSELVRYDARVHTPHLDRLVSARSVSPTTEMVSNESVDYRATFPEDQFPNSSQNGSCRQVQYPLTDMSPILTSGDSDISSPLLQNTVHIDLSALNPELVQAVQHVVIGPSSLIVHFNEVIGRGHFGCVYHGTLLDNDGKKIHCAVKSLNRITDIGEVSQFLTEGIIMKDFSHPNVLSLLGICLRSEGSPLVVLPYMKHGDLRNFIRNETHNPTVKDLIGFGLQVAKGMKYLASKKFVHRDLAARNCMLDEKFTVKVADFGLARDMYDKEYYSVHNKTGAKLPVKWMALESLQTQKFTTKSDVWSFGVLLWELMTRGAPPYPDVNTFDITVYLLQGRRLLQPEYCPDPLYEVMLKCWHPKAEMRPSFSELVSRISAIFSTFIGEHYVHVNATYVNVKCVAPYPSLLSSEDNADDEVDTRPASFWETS

Compound: COCCOCCOCCNC(=O)OCCN1CCN(c2cc(Nc3ncc(C(=O)Nc4c(C)cccc4Cl)s3)nc(C)n2)CC1 [mPEG3-NHCOO-Dasatinib]
- % Inhibition at 10 nM [1]: −1%
- % Inhibition at 1 μM [1]: 0%
- % Inhibition at 10 nM [2]: 5%
- % Inhibition at 1 μM [2]: 3%
- % Inhibition at 10 nM [3]: 3%
- % Inhibition at 1 μM [3]: 48%
- % Inhibition at 10 nM [4]: 6%
- % Inhibition at 1 μM [4]: 11%
- % Inhibition at 10 nM [5]: 1%
- % Inhibition at 1 μM [5]: 2%
- % Inhibition at 10 nM [6]: 98%
- % Inhibition at 1 μM [6]: 98%
- % Inhibition at 10 nM [7]: 3%
- % Inhibition at 1 μM [7]: 6%
- % Inhibition at 10 nM [8]: 2%
- % Inhibition at 1 μM [8]: 1%
- % Inhibition at 10 nM [9]: 3%
- % Inhibition at 1 μM [9]: 0%
- % Inhibition at 10 nM [10]: 6%
- % Inhibition at 1 μM [10]: 4%
- % Inhibition at 10 nM [11]: 0%
- % Inhibition at 1 μM [11]: −1%
- % Inhibition at 10 nM [12]: −1%
- % Inhibition at 1 μM [12]: 4%
- % Inhibition at 10 nM [13]: 2%
- % Inhibition at 1 μM [13]: 2%
- % Inhibition at 10 nM [14]: 99%
- % Inhibition at 1 μM [14]: 99%
- % Inhibition at 10 nM [15]: 98%
- % Inhibition at 1 μM [15]: 99%
- % Inhibition at 10 nM [16]: 1%
- % Inhibition at 1 μM [16]: −1%
- % Inhibition at 10 nM [17]: 4%
- % Inhibition at 1 μM [17]: 1%
- % Inhibition at 10 nM [18]: 3%
- % Inhibition at 1 μM [18]: 0%
- % Inhibition at 10 nM [19]: 97%
- % Inhibition at 1 μM [19]: 98%
- % Inhibition at 10 nM [20]: 3%
- % Inhibition at 1 μM [20]: 76%
- % Inhibition at 10 nM [21]: 98%
- % Inhibition at 1 μM [21]: 99%
- % Inhibition at 10 nM [22]: 7%
- % Inhibition at 1 μM [22]: 75%

Compound: COCCOCCOCCOCCOCCOCCOCCNC(=O)OCCN1CCN(c2cc(Nc3ncc(C(=O)Nc4c(C)cccc4Cl)s3)nc(C)n2)CC1 [mPEG7-NHCOO-Dasatinib]
- % Inhibition at 10 nM [1]: −3%
- % Inhibition at 1 μM [1]: −5%
- % Inhibition at 10 nM [2]: 1%
- % Inhibition at 1 μM [2]: 0%
- % Inhibition at 10 nM [3]: 0%
- % Inhibition at 1 μM [3]: 35%
- % Inhibition at 10 nM [4]: 3%
- % Inhibition at 1 μM [4]: 2%
- % Inhibition at 10 nM [5]: 1%
- % Inhibition at 1 μM [5]: 2%
- % Inhibition at 10 nM [6]: 98%
- % Inhibition at 1 μM [6]: 99%
- % Inhibition at 10 nM [7]: 0%
- % Inhibition at 1 μM [7]: 2%
- % Inhibition at 10 nM [8]: 3%
- % Inhibition at 1 μM [8]: 5%
- % Inhibition at 10 nM [9]: 0%
- % Inhibition at 1 μM [9]: 2%
- % Inhibition at 10 nM [10]: 8%
- % Inhibition at 1 μM [10]: 0%
- % Inhibition at 10 nM [11]: −3%
- % Inhibition at 1 μM [11]: −2%
- % Inhibition at 10 nM [12]: 0%
- % Inhibition at 1 μM [12]: 4%
- % Inhibition at 10 nM [13]: 6%
- % Inhibition at 1 μM [13]: 3%
- % Inhibition at 10 nM [14]: 98%
- % Inhibition at 1 μM [14]: 98%
- % Inhibition at 10 nM [15]: 99%
- % Inhibition at 1 μM [15]: 99%
- % Inhibition at 10 nM [16]: 2%
- % Inhibition at 1 μM [16]: 3%
- % Inhibition at 10 nM [17]: 3%
- % Inhibition at 1 μM [17]: 2%
- % Inhibition at 10 nM [18]: 1%
- % Inhibition at 1 μM [18]: 1%
- % Inhibition at 10 nM [19]: 98%
- % Inhibition at 1 μM [19]: 98%
- % Inhibition at 10 nM [20]: 6%
- % Inhibition at 1 μM [20]: 62%
- % Inhibition at 10 nM [21]: 98%
- % Inhibition at 1 μM [21]: 98%
- % Inhibition at 10 nM [22]: 5%
- % Inhibition at 1 μM [22]: 63%
